Experiments:
E. Coli = experiment: In vitro tubule sterilization test using sodium hypochlorite and nanobubbles (extracted bovine teeth); format: cell-based; conditions: for OD600 value: paper point cultured 12 hours
Method: Using ten extracted bovine teeth (anterior teeth), the apical area of each of the teeth was filled with photopolymerization type ionomer cement. Then, the inside of the root cavity was treated with 6% sodium hypochlorite, irrigated, and sterilized with an autoclave. Thereafter, the inside of the root canal was sufficiently irrigated with a sterilized saline solution, dried with a paper point, filled with an E. Coli saturated solution, and then cultured in a humidity bath at 37° C. for a night. Then, the E. Coli solution in the root canal was sucked with a paper point, and the root canal was filled with an irrigation solution and 1% or 0.1% sodium hypochlorite. Thereafter, 5% nanobubbles were injected into the root canal, and ultrasound was applied thereto at a voltage of 30 V, a frequency of 1.186 MHz, a burst rate of 18.8 Hz, and a pulse-duty ratio of 50% for 120 seconds. Subsequently, the root canal was sufficiently irrigated with a saline solution, and the tooth was left for one minute with a paper point inserted into the root canal. Then, the paper point was cultured. After 12 hours, the amount of bacteria was measured with an absorbance OD600.

[1] = In-vitro test for drug permeation in root canal using ultrasound and nanobubbles (extracted canine tooth, fluorescence); format: in vitro ADME
Source text: After an extracted canine tooth had been subjected to access cavity preparation and root canal enlargement (to #60) by common methods, a smear layer was removed with a Smear Clean (Nippon Shika Yakuhin Co., Ltd.), and the tooth was refrigerated in a saline solution until being used in an experiment. Then, the inside of the root canal was sufficiently dried with a cotton plug. Thereafter, to prevent a drug solution from leaking from the root canal, an apical area was filled with a Unifast III (GC Corporation). Subsequently, nanobubbles were diluted with a saline solution such that the concentration of the nanobubbles is 5% or 10% (where the bubble concentration will be expressed in terms of vol % hereinafter), thereby preparing a drug solution containing 4.5 mg/ml tetracycline (SIGMA088K0680). The 5% nanobubbles herein mean that the concentration of the nanobubbles is 6×10^8/ml. The 10% nanobubbles herein mean that the concentration of the nanobubbles is 1.2×10^9/ml. Since even a small amount of deposited tetracycline produces fluorescence when irradiated with ultraviolet radiation, a deposition site can be easily detected with a fluorescence microscope. As a control, microbubbles (Optison (Molecular Biosystems Inc., San Diego)) were used, and a 5% or 10% drug solution was used. The 5% microbubbles herein mean that the concentration of the microbubbles is 6×10^8/ml. The 10% microbubbles herein mean that the concentration of the microbubbles is 1.2×10^9/ml. Then, 20 μl of the drug solution was applied into the root canal, and using an ultrasound generator (SonoPore KTAC-4000), an ultrasonic device with a diameter of 1 mm of a detachable irradiation tube propagation type probe (i.e., an applicator type in which a Langevin transducer is provided inside a probe body) was inserted into the root canal, and the device was operated. Operating conditions were that the voltage was 30 V (0.13-0.20 W indicated by a meter) or 31 V, the frequency was 1.186 MHz, the burst rate was 18.8 Hz, the pulse-duty ratio was 50%, and the application time was 120 seconds. After a lapse of the application time, the dilution solution was sufficiently removed with a cotton plug, and then a section with a thickness of 150 μm was prepared with a saw microtome (Leica SP1600), and a microscopic examination was performed with a stereomicroscope under ultraviolet irradiation. The degree of delivery of the drug into dentin tubules was observed based on fluorescence reaction.

[2] = system: kanamycin-resistant enterococcus faecalis (lactococcus); experiment: In vivo tubule sterilization test using ultrasound and nanobubbles (canine tooth root canal)
Method: After a canine tooth had been subjected to access cavity preparation and root canal enlargement (to #60) in vivo by common methods, a smear layer was removed with a Smear Clean (Nippon Shika Yakuhin Co., Ltd.). Then, the inside of the root canal was sufficiently dried with a cotton plug. Thereafter, 10 μl of a bacterial culture (a brain heart infusion (BHI) broth, Nissui Pharmaceuticals Co., Ltd., containing kanamycin) in which kanamycin-resistant enterococcus faecalis (lactococcus) subjected to gene transfer of pEGFP-C1 (clontech) was cultured was injected into each root canal. Subsequently, the root canal was temporarily sealed with zinc phosphate cement. Then, after 7 days, the root canal was irrigated with 3 ml of a saline solution. Thereafter, 20 μl of a drug solution containing 10% nanobubbles and 50 μg/ml of ampicillin was applied into the root canal. Then, with an ultrasound generator (SonoPore KTAC-4000), an ultrasonic device with a diameter of 1 mm of a detachable irradiation tube propagation type probe (i.e., an applicator type in which a Langevin transducer is provided inside a probe body) was inserted into the root canal, and ultrasound was delivered at a voltage of 30 V, a frequency of 1.186 MHz, a burst rate of 18.8 Hz, and a pulse-duty ratio of 50% for an application time of 120 seconds. […]

## OCl [sodium hypochlorite]
E. Coli; 0.1% sodium hypochlorite
  sterilization of the inside of the root canal: sterilized only in the presence of 5% nanobubbles
E. Coli; 1% sodium hypochlorite, irrespective of the presence of 5% nanobubbles
  bactericidal effect in the root canal: a bactericidal effect was obtained
E. Coli; sodium hypochlorite 1.0, 5% nanobubbles +, ultrasound 30 V 120 seconds
  OD600 value: 0
E. Coli; sodium hypochlorite 1.0, 5% nanobubbles −
  OD600 value: 0

## CN(C)[C@@H]1C(O)=C(C(N)=O)C(=O)[C@@]2(O)C(O)=C3C(=O)c4c(O)cccc4[C@@](C)(O)[C@H]3C[C@@H]12 [tetracycline]
[1]; 5% microbubbles, no ultrasound (FIG. 21E)
  degree of delivery of the drug to dentin tubules: insufficient
[1]; 5% microbubbles, ultrasound 30 V (FIG. 21D)
  degree of delivery of the drug to dentin tubules: insufficient
[1]; 5% nanobubbles, no ultrasound (FIG. 21C)
  degree of delivery of the drug to dentin tubules: insufficient
[1]; 5% nanobubbles, ultrasound 30 V, 120 seconds, 4.5 mg/ml tetracycline (FIG. 21A)
  degree of delivery of the drug to dentin tubules: high
[1]; 5% nanobubbles, ultrasound 31 V (FIG. 21B)
  degree of delivery of the drug to dentin tubules: insufficient
[1]; 10% microbubbles, no ultrasound (FIG. 22E)
  degree of delivery of the drug to dentin tubules: insufficient
[1]; 10% microbubbles, ultrasound 30 V (FIG. 22D)
  degree of delivery of the drug to dentin tubules: insufficient
[1]; 10% nanobubbles, no ultrasound (FIG. 22C)
  degree of delivery of the drug to dentin tubules: insufficient
[1]; 10% nanobubbles, ultrasound 30 V, 120 seconds, 4.5 mg/ml tetracycline (FIG. 22A)
  degree of delivery of the drug to dentin tubules: high
[1]; 10% nanobubbles, ultrasound 31 V (FIG. 22B)
  degree of delivery of the drug to dentin tubules: insufficient
[1]; bubble concentrations of 5% and 10%
  drug permeation with nanobubbles compared with microbubbles: more significantly permeates
[1]; ultrasound 30 V (FIGS. 21A and 22A)
  degree of delivery of the drug to dentin tubules, 10% nanobubbles compared with 5% nanobubbles: higher

## CC1(C)S[C@@H]2[C@H](NC(=O)[C@H](N)c3ccccc3)C(=O)N2[C@H]1C(=O)O [ampicillin]
[2]; 50 μg/ml ampicillin delivered using 10% nanobubbles and ultrasound 30 V, 120 seconds, fourth day (FIG. 25A)
  bacteria in the lateral wall of the root canal: no bacteria were observed
[2]; only ampicillin, fourth day (FIG. 25B)
  bacteria in the lateral wall of the root canal: bacteria were not completely killed

From patent publication US9452036B2, “Dental ultrasonic drug delivery system and dental ultrasonic drug delivery method” (priority 2009, dated 2016)
